Assay results published in patent US20090099231A1, “3-Sulfonylamino-Pyrrolidine-2-One Derivatives as Factor Xa Inhibitors” (priority 2005, published 2009).
Where a name gives a salt, the structure may show the parent alone.

Columns and labels:
human Factor Xa = human Factor Xa (Homo sapiens, UniProt P00742); experiment: In vitro assay for inhibition of Factor Xa (fluorogenic assay, Rhodamine 110 bis-Cbz-glycylglycyl-L-arginine amide substrate); format: biochemical; settings: for Factor Xa inhibitory activity: human Factor Xa 0.0003 U.ml-1, substrate 10 μM, 15 min preincubation, room temperature, pH 7.4; for Ki: Ki=IC50/(1+[Substrate]/Km), i.e. IC50 divided by 1.6, human Factor Xa fluorogenic assay
human Factor Xa, sequence (P00742 235-488 limits assumed): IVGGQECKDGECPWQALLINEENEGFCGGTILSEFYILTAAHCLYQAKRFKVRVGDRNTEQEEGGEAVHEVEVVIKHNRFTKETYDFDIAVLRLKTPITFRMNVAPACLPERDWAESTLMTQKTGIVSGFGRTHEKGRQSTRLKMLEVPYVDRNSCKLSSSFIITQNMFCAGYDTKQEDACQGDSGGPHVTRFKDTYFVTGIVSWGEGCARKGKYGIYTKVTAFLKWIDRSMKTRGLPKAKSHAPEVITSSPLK
human Factor Xa, sequence (P00742 41-179 partner limits assumed): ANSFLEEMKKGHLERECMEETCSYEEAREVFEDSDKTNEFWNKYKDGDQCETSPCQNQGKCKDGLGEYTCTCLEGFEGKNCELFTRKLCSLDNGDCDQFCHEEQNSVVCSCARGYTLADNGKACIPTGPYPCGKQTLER
Description: Compounds of the present invention were tested for their Factor Xa inhibitory activity as determined in vitro by their ability to inhibit human Factor Xa in a fluorogenic assay, using Rhodamine 110, bis-Cbz-glycylglycyl-L-arginine amide as the fluorogenic substrate. Compounds were diluted from a 10 mM stock solution in dimethylsulfoxide at appropriate concentrations. Assay was performed at room temperature using buffer consisting of: 50 mM Tris-HCl, 150 mM NaCl, 5 mM CaCl2, pH 7.4 containing human Factor Xa (final concentration of 0.0003 U.ml-1). Compound and enzyme were preincubated for 15 min prior to addition of the substrate (final concentration of 10 μM). The reaction was stopped after 3 hrs with the addition of H-D-Phe-Pro-Arg-Chloromethylketone. An LJL-Analyst fluorimeter was used to monitor fluorescence with 485 nm excitation/535 nm emission. To obtain IC50 values the data were analysed using ActivityBase® and XLfit®.
Ki=IC50/(1+[Substrate]/Km)
The Ki value for the above assay can be obtained by dividing the IC50 value by 1.6.

human plasma = experiment: Measurement of Prothrombin Time (PT), time to clot formation in plasma; settings: pooled plasma from 4 donors, test compound 0.03 to 100 uM, Thromboplastin C Plus
Description: Blood was collected into a sodium citrate solution (ratio 9:1) to give a final concentration of 0.38% citrate. Plasma was generated by centrifugation of citrated blood samples at 1200×g for 20 min at 4° C. and stored at −20° C. until use.
The PT test was performed using the BCS Coagulation Analyzer (Dade Behring). For assay, 50 ul of plasma containing test compound at concentrations ranging from 0.03 to 100 uM (made from a 100 uM stock containing 1% DMSO in plasma) was combined with 100 ul of Thromboplastin C Plus (Dade Behring). Upon addition of the reagents, absorbance at 405 nm was monitored and time to clot formation is determined (normal range for human plasma is 10.6-12.4 seconds).

SMILES | Factor Xa inhibitory activity (human Factor Xa) | activity in prothrombin time (PT) test (human plasma) | Ki (human Factor Xa) [nM]
Cc1cc2c(cc1N1CC[C@H](NS(=O)(=O)c3ccc4cc(Cl)ccc4c3)C1=O)CCNC2.Cl [Example 27, 6-Chloro-N-[(3S)-1-(7-methyl-1,2,3,4-tetrahydro-6-isoquinolinyl)-2-oxo-3-pyrrolidinyl]-2-naphthalenesulfonamide hydrochloride] | exhibit Factor Xa inhibitory activity | exhibit activity | –
Cl.O=C1[C@@H](NS(=O)(=O)c2ccc(-c3ccc(Cl)s3)s2)CCN1c1ccc2c(c1)CCNC2 [Example 10, 5′-Chloro-N-[(3S)-2-oxo-1-(1,2,3,4-tetrahydro-6-isoquinolinyl)-3-pyrrolidinyl]-2,2′-bithiophene-5-sulfonamide hydrochloride] | exhibit Factor Xa inhibitory activity | exhibit activity | –
Cl.O=C1[C@@H](NS(=O)(=O)/C=C/c2ccc(Cl)s2)CCN1c1ccc2c(c1F)CCNC2 [Example 18, (E)-2-(5-Chloro-2-thienyl)-N-[(3S)-1-(5-fluoro-1,2,3,4-tetrahydro-6-isoquinolinyl)-2-oxo-3-pyrrolidinyl]ethenesulfonamide hydrochloride] | exhibit Factor Xa inhibitory activity | exhibit activity | –
CC1Cc2cc(N3CC[C@H](NS(=O)(=O)/C=C/c4ccc(Cl)s4)C3=O)ccc2CN1 (stereo partly drawn) [Example 33, (E)-2-(5-Chloro-2-thienyl)-N-[(3S)-1-(3-methyl-1,2,3,4-tetrahydro-6-isoquinolinyl)-2-oxo-3-pyrrolidinyl]ethenesulfonamide hydrochloride] | exhibit Factor Xa inhibitory activity | exhibit activity | < 10
CC1Cc2cc(N3CC[C@H](NS(=O)(=O)c4ccc5cc(Cl)ccc5c4)C3=O)ccc2CN1.O=CO (stereo partly drawn) [Example 38, 6-Chloro-N-[(3S)-1-(3-methyl-1,2,3,4-tetrahydro-6-isoquinolinyl)-2-oxo-3-pyrrolidinyl]-2-naphthalenesulfonamide formate] | exhibit Factor Xa inhibitory activity | exhibit activity | –
CC1NCCc2cc(N3CC[C@H](NS(=O)(=O)c4ccc5cc(Cl)ccc5c4)C3=O)ccc21 (stereo partly drawn) [Example 31, 6-Chloro-N-[(3S)-1-(1-methyl-1,2,3,4-tetrahydro-6-isoquinolinyl)-2-oxo-3-pyrrolidinyl]-2-naphthalenesulfonamide hydrochloride] | exhibit Factor Xa inhibitory activity | exhibit activity | < 10
O=C1[C@@H](NS(=O)(=O)c2cc3cc(Cl)ccc3s2)CCN1c1ccc2c(c1)CCNC2 [Example 9, 5-Chloro-N-[(3S)-2-oxo-1-(1,2,3,4-tetrahydro-6-isoquinolinyl)-3-pyrrolidinyl]-1-benzothiophene-2-sulfonamide trifluoroacetate] | exhibit Factor Xa inhibitory activity | exhibit activity | –
CC1NCCc2cc(N3CC[C@H](NS(=O)(=O)/C=C/c4ccc(Cl)s4)C3=O)ccc21 (stereo partly drawn) [Example 32, (E)-2-(5-Chloro-2-thienyl)-N-[(3S)-1-(1-methyl-1,2,3,4-tetrahydro-6-isoquinolinyl)-2-oxo-3-pyrrolidinyl]ethenesulfonamide hydrochloride] | exhibit Factor Xa inhibitory activity | exhibit activity | < 10
Cl.O=C1[C@@H](NS(=O)(=O)c2ccc3cc(Cl)ccc3c2)CCN1c1ccc2c(c1)CCNC2 [Example 1, 6-Chloro-N-[(3S)-2-oxo-1-(1,2,3,4-tetrahydro-6-isoquinolinyl)-3-pyrrolidinyl]-2-naphthalenesulfonamide hydrochloride] | exhibit Factor Xa inhibitory activity | exhibit activity | –
O=C1[C@@H](NS(=O)(=O)c2cc3ccc(Cl)cc3[nH]2)CCN1c1ccc2c(c1)CCNC2.O=CO [Example 6, 6-Chloro-N-[(3S)-2-oxo-1-(1,2,3,4-tetrahydro-6-isoquinolinyl)-3-pyrrolidinyl]-1H-indole-2-sulfonamide formate] | exhibit Factor Xa inhibitory activity | exhibit activity | < 10
Cl.O=C1[C@@H](NS(=O)(=O)c2ccc3c(Cl)c[nH]c3c2)CCN1c1cc2c(cc1Cl)CNCC2 [Example 26, 3-Chloro-N-[(3S)-1-(7-chloro-1,2,3,4-tetrahydro-6-isoquinolinyl)-2-oxo-3-pyrrolidinyl]-1H-indole-6-sulfonamide hydrochloride] | exhibit Factor Xa inhibitory activity | exhibit activity | < 10
Cl.O=C1[C@@H](NS(=O)(=O)c2cc3ccc(Cl)cc3s2)CCN1c1ccc2c(c1)CCNC2 [Example 3, 6-Chloro-N-[(3S)-2-oxo-1-(1,2,3,4-tetrahydro-6-isoquinolinyl)-3-pyrrolidinyl]-1-benzothiophene-2-sulfonamide hydrochloride] | exhibit Factor Xa inhibitory activity | exhibit activity | < 10
Cl.O=C1[C@@H](NS(=O)(=O)c2ccc3c(Cl)c[nH]c3c2)CCN1c1cc2c(cc1F)CNCC2 [Example 23, 3-Chloro-N-[(3S)-1-(7-fluoro-1,2,3,4-tetrahydro-6-isoquinolinyl)-2-oxo-3-pyrrolidinyl]-1H-indole-6-sulfonamide hydrochloride] | exhibit Factor Xa inhibitory activity | exhibit activity | –
O=C1[C@@H](NS(=O)(=O)c2cc3cc(Cl)ccc3[nH]2)CCN1c1ccc2c(c1)CCNC2.O=CO [Example 36, 5-Chloro-N-[(3S)-2-oxo-1-(1,2,3,4-tetrahydro-6-isoquinolinyl)-3-pyrrolidinyl]-1H-indole-2-sulfonamide] | exhibit Factor Xa inhibitory activity | exhibit activity | < 10
O=C1[C@@H](NS(=O)(=O)c2ccc3c(Cl)c[nH]c3c2)CCN1c1ccc2c(c1)CCNC2.O=CO [Example 4, 3-Chloro-N-[(3S)-2-oxo-1-(1,2,3,4-tetrahydro-6-isoquinolinyl)-3-pyrrolidinyl]-1H-indole-6-sulfonamide formate] | exhibit Factor Xa inhibitory activity | exhibit activity | –
